Measured values published in ChEMBL document CHEMBL1137690, “Novel amide derivatives as inhibitors of histone deacetylase: design, synthesis and SAR” (Eur J Med Chem, 2009).

Columns and labels:
[1] = biological target: Histone deacetylase (Homo sapiens) (UniProt Q13547+O15379+Q9UBN7+Q92769+Q9UQL6+Q8WUI4+Q9BY41+Q96DB2+P56524+Q9UKV0+Q969S8); assay: Inhibition of HDAC from human HeLa cells at 500 nM
[2] = test system: HeLa; assay: Antiproliferative activity against human HeLa cells after 4 hrs by WST-1 assay; format: functional, cell-based
[3] = biological target: Histone deacetylase; assay: Inhibition of HDAC from human HeLa cells; format: cell-based
[4] = test system: P388; assay: Antitumor activity in mouse P388 cells xenografted B6D2F1 mouse assessed as increase in life span at 20 mg/kg/day, ip administered 3 to 7 days postxenografting; format: functional; conditions: route intraperitoneal
[5] = test system: P388; assay: Antitumor activity in mouse P388 cells xenografted B6D2F1 mouse assessed as increase in life span at 60 mg/kg/day, ip administered 3 to 7 days postxenografting; format: functional; conditions: route intraperitoneal
[6] = test system: P388; assay: Antitumor activity in mouse P388 cells xenografted B6D2F1 mouse assessed as increase in life span at 100 mg/kg/day, ip administered 3 to 7 days postxenografting; format: functional; conditions: route intraperitoneal
[7] = biological target: Histone deacetylase 3 (Homo sapiens, UniProt O15379); assay: Inhibition of human recombinant HDAC3
Sequence of Histone deacetylase 3 (O15379 whole entry): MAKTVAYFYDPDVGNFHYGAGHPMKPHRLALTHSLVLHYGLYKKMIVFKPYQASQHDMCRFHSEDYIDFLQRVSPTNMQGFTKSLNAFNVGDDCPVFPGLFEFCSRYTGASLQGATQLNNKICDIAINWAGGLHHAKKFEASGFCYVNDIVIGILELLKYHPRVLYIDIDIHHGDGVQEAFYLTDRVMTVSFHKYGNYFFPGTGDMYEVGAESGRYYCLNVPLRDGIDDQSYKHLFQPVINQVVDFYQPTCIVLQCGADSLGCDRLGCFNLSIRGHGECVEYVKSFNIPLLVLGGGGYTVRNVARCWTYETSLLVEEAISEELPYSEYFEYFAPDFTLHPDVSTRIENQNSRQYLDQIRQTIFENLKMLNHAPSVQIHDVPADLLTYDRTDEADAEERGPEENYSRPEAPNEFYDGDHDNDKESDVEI

[8] = biological target: Histone deacetylase 2 (Homo sapiens, UniProt Q92769); assay: Inhibition of human recombinant HDAC2
Sequence of Histone deacetylase 2 (Q92769 whole entry): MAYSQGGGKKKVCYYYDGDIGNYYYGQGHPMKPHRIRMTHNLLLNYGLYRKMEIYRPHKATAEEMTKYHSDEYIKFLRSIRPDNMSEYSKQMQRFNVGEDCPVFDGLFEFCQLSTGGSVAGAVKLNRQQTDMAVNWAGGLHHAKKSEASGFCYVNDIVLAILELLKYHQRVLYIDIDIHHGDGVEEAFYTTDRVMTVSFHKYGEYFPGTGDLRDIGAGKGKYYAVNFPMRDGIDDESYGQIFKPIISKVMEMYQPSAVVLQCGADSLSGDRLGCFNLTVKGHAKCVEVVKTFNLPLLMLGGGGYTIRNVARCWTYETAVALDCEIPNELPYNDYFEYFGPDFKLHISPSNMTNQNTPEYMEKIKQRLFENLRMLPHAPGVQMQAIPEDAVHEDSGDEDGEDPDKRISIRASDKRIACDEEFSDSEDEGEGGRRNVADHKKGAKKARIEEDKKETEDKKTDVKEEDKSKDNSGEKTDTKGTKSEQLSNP

[9] = biological target: T1, Histone deacetylase 8 (Homo sapiens, UniProt Q9BY41); assay: Inhibition of human recombinant HDAC8
T1 sequence (Q9BY41 whole entry): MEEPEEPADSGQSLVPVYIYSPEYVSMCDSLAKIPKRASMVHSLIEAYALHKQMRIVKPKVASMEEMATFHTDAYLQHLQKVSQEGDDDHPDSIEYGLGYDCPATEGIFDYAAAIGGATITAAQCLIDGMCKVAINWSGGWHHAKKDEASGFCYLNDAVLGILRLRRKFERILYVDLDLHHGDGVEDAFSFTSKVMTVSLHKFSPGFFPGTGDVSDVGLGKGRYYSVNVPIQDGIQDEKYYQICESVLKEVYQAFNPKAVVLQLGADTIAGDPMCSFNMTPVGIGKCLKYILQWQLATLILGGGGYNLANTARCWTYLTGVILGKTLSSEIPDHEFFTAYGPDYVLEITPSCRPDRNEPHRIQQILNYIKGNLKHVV

[10] = biological target: Histone deacetylase 9 (Homo sapiens, UniProt Q9UKV0); assay: Inhibition of human recombinant HDAC9
Sequence of Histone deacetylase 9 (Q9UKV0 whole entry): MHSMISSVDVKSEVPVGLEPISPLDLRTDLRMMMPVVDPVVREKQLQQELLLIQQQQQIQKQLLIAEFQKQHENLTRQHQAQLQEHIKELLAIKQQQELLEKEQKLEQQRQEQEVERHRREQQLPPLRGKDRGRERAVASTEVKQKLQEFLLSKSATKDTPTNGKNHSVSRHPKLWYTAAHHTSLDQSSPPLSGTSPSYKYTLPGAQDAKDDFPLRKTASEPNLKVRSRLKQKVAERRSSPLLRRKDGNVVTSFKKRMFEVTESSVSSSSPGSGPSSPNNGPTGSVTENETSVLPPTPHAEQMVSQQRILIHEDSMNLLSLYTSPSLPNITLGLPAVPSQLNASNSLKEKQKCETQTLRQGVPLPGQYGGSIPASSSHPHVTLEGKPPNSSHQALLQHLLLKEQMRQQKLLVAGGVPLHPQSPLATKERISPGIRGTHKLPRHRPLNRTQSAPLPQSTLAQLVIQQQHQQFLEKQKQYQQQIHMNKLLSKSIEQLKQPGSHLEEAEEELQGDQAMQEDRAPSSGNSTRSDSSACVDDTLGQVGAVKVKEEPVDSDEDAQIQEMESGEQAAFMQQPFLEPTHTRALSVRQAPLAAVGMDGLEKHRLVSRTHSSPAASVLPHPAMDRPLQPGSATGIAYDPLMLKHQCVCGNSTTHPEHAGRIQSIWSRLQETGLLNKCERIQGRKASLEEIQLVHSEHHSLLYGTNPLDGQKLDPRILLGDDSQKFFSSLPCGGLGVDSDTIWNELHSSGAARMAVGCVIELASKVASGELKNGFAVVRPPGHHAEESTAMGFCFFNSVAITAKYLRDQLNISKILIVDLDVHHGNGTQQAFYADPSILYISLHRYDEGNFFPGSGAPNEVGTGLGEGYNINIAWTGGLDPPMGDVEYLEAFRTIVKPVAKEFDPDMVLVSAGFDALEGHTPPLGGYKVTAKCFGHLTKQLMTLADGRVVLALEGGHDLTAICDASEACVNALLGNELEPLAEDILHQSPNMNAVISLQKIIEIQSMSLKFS

[11] = biological target: Histone deacetylase 4 (Homo sapiens, UniProt P56524); assay: Inhibition of human recombinant HDAC4
Sequence of Histone deacetylase 4 (P56524 whole entry): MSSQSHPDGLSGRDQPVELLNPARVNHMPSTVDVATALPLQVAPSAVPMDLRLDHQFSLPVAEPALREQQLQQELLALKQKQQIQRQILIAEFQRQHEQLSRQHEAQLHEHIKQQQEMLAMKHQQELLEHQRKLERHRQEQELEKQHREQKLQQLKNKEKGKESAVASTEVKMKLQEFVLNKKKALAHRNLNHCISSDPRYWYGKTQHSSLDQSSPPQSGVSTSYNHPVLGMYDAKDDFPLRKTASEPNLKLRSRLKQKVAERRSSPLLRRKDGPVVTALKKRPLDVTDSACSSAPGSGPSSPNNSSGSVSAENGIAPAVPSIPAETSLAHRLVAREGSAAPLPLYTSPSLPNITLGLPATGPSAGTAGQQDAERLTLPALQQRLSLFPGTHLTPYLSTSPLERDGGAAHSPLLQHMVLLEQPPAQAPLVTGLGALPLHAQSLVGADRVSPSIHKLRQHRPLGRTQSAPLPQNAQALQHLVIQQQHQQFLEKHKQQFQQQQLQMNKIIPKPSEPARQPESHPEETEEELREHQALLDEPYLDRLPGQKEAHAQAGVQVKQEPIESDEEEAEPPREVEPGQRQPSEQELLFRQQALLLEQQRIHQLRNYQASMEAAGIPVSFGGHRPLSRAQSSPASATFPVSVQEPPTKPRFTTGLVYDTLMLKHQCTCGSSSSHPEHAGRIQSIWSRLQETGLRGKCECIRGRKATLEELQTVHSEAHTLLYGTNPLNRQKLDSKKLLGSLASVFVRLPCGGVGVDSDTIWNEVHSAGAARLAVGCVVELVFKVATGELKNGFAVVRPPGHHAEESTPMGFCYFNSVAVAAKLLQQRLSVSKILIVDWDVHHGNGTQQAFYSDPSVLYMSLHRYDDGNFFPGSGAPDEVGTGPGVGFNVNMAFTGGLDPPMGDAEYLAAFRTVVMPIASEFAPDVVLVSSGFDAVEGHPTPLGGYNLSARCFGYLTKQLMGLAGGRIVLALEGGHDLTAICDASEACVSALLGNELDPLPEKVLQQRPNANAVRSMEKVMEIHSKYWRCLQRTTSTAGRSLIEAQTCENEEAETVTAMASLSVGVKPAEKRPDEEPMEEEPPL

[12] = biological target: Histone deacetylase 1 (Homo sapiens, UniProt Q13547); assay: Inhibition of human recombinant HDAC1
Sequence of Histone deacetylase 1 (Q13547 whole entry): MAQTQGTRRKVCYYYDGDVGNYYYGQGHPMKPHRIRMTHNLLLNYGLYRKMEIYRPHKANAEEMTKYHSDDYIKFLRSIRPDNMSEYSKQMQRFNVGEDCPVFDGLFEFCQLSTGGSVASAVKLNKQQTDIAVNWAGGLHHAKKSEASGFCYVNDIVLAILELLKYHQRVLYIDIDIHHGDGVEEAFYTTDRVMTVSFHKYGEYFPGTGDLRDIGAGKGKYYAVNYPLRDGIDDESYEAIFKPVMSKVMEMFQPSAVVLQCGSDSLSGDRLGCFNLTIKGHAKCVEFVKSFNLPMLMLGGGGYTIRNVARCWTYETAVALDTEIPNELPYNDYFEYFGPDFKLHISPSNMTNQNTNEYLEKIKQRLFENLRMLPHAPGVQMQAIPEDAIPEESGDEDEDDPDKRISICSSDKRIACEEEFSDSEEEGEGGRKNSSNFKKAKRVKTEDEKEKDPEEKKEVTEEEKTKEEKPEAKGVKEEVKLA

[13] = biological target: T2, Protein deacetylase HDAC6 (Homo sapiens, UniProt Q9UBN7); assay: Inhibition of human recombinant HDAC6
T2 sequence (Q9UBN7 whole entry): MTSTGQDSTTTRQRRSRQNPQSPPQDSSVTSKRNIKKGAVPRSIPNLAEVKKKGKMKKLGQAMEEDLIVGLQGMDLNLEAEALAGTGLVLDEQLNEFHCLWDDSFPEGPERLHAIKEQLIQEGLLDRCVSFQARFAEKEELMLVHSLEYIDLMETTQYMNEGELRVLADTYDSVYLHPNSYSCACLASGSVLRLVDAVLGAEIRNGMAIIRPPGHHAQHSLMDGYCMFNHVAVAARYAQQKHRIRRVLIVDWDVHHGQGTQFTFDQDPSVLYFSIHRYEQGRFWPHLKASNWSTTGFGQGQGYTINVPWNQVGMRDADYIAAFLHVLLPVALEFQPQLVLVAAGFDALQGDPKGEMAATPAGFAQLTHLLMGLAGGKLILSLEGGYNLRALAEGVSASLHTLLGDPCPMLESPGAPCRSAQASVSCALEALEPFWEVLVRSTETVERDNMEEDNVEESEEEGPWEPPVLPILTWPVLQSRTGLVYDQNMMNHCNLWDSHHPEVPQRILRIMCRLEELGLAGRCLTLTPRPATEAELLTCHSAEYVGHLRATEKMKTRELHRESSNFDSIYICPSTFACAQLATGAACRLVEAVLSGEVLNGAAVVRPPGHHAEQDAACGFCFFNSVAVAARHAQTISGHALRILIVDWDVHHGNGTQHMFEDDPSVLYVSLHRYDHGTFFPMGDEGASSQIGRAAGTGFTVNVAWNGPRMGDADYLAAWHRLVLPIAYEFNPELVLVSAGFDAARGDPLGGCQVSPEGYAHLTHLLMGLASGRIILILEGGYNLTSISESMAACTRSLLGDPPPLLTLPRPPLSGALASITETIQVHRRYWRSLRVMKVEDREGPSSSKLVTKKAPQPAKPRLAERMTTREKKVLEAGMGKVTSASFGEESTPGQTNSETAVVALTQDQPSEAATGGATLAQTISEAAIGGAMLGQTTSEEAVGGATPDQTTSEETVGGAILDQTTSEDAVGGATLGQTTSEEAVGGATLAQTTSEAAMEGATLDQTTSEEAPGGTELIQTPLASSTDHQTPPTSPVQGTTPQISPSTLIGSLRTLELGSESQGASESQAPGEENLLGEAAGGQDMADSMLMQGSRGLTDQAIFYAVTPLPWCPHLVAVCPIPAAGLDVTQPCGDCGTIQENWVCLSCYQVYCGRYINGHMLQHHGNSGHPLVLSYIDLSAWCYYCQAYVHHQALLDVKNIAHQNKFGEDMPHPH

SMILES | inhibition [1] [%] | IC50 ([2]; 48 h) [µM] | IC50 [3] [µM] | also measured
O=C(CCCCCCC(=O)NCc1ccccc1)NO | 39 | 44.2 | – | –
O=C(CCCCCNC(=O)CC/C=C/c1ccccc1)NO | – | 20.6 | 0.625 | –
CN(C)c1ccc(C(=O)NCCCCCC(=O)NO)cc1 | – | 4.1 | – | –
O=C(/C=C/c1cccc2cccnc12)NCCCCCC(=O)NO | – | 20.9 | 0.025 | –
O=C(/C=C/c1cccnc1)NCCCCCC(=O)NO.O=C(O)C(=O)O | – | 28.4 | 0.141 | –
CC(/C=C/C(=O)NCCCC(=O)NO)=C\c1ccccc1 | – | 114 | 22.85 | –
O=C(CCCCCCC(=O)NCCc1ccccc1)NO | 46 | 13.3 | – | –
O=C(/C=C/c1ccc2cccnc2c1)NCCCCCC(=O)NO | – | 12.3 | – | Activity [4]: 0%; Activity [5]: 111%
O=C(/C=C/c1ccncc1)NCCCCCC(=O)NO.O=C(O)C(=O)O | – | 46.4 | 0.101 | –
O=C(CCCCCNC(=O)CCCc1ccccc1)NO | 19 | 52.7 | – | –
O=C(CCCCCNC(=O)CCc1ccccc1)NO | 27 | 74.8 | – | –
O=C(CCCCNC(=O)c1ccc2ccccc2c1)NO | 42 | 24.7 | – | –
O=C(CCCCCNC(=O)C/C=C/c1ccccc1)NO | 53 | 24 | – | –
CN(C)c1ccc(CC(=O)NCCCCCC(=O)NO)cc1 | 9 | 52.7 | – | –
O=C(/C=C/c1ccc(Cl)cc1F)NCCCCCC(=O)NO | – | 6.3 | – | Activity [4]: 0%; Activity [5]: 22%
O=C(CCCCCCC(=O)Nc1ccccc1)NO [VORINOSTAT] | – | – | – | Activity [4]: 11%; Activity [5]: 0%; Activity [6]: 14%
O=C(/C=C/c1ccccn1)NCCCCCC(=O)NO.O=C(O)C(=O)O | – | 9.5 | 0.046 | –
O=C(C=C1c2ccccc2-c2ccccc21)NCCCCCC(=O)NO | – | 1.7 | 0.005 | IC50 [7]: 0.0028 µM; IC50 [8]: 0.0008 µM; Activity [4]: 11%; IC50 [9]: 0.779 µM; IC50 [10]: 0.0023 µM; IC50 [11]: 0.0012 µM; Activity [5]: 78%; IC50 [12]: 0.0016 µM; IC50 [13]: 0.002 µM
O=C(CCCCCNC(=O)CCCCc1ccccc1)NO | 51 | 70.8 | – | –

Second part, led by results:

inhibition [1] [%] | IC50 ([2]; 48 h) [µM] | IC50 [3] [µM] | SMILES | also measured
– | 5.5 | 0.032 | O=C(/C=C/c1ccccc1)NCCCCCC(=O)NO | –
– | 5.1 | 0.029 | O=C(/C=C/C=C/c1ccccc1)NCCCCCC(=O)NO | –
51 | 35.9 | – | O=C(CCCCCNC(=O)Cc1ccc(-c2ccccc2)cc1)NO | –
– | 0.4 | – | O=C(CCCCCCNC(=O)c1ccc2ccccc2c1)NO | –
– | 4.8 | – | CC(/C=C/c1ccccc1)=C\C(=O)NCCCCCC(=O)NO | –
– | – | 0.062 | O=C(C#Cc1ccccc1)NCCCCCC(=O)NO | IC50 ([2]; 4 h): 10.6 µM
– | 3.6 | 0.028 | O=C(CCCCCCCNC(=O)c1ccc2ccccc2c1)NO | –
– | 2.6 | 0.038 | O=C(CCCCCNC(=O)c1ccc(-c2ccccc2)cc1)NO | –
– | 18.3 | 0.007 | O=C(/C=C/c1ccc2ccccc2c1)NCCCCCC(=O)NO | –
– | 8.5 | 0.201 | O=C(C=C(c1ccccc1)c1ccccc1)NCCCCCC(=O)NO | –
– | 9.9 | 0.338 | O=C(C=C1c2ccccc2CCc2ccccc21)NCCCCCC(=O)NO | –
